Assay results published in the NIST ThermoML archive (doi:10.1021/je900262t).

Tests used:
[1] = Liquid; for mass density: 303.15 K, 101.33 kPa, Pycnometric method; for vapor or sublimation pressure: Ebulliometric method (Recirculating still)
[2] = excess molar enthalpy (molar enthalpy of mixing); xn = mol fraction of the nth substance listed; conditions: 298.15 K, 101 kPa, Liquid

CC(=O)CC(C)C [4-methylpentan-2-one]
Conditions | mass density [kg/m3]
[1] | 796.33

Conditions | vapor or sublimation pressure [kPa]
[1], 386.65 K | 95.3

CC(=O)CC(C)C [4-methylpentan-2-one] + CN1CCCC1=O
[2]
Conditions | excess molar enthalpy [kcal/mol]
x1 = 0.0508 | 0.00545
x1 = 0.1052 | 0.0119
x1 = 0.1632 | 0.0183
x1 = 0.2234 | 0.0242
x1 = 0.2858 | 0.0304
x1 = 0.3815 | 0.04
x1 = 0.4258 | 0.0429
x1 = 0.4787 | 0.0432
x1 = 0.5346 | 0.0415
x1 = 0.599 | 0.0401
x1 = 0.6712 | 0.0362
x1 = 0.7536 | 0.0253
x1 = 0.8369 | 0.0156
x1 = 0.9192 | 0.00581

CN1CCCC1=O [N-methylpyrrolidone]
Conditions | mass density [kg/m3]
[1] | 1023.4

Conditions | vapor or sublimation pressure [kPa]
[1], 473.25 K | 95.3

CCC(C)=O [butanone]
Conditions | mass density [kg/m3]
[1] | 799.71

Conditions | vapor or sublimation pressure [kPa]
[1], 350.85 K | 95.3

CCC(C)=O [butanone] + CN1CCCC1=O
[2]
Conditions | excess molar enthalpy [kcal/mol]
x1 = 0.0565 | -0.00626
x1 = 0.1162 | -0.0109
x1 = 0.1812 | -0.0161
x1 = 0.2461 | -0.0239
x1 = 0.3104 | -0.0306
x1 = 0.369 | -0.0355
x1 = 0.4334 | -0.0382
x1 = 0.4841 | -0.04
x1 = 0.5458 | -0.0377
x1 = 0.6781 | -0.0277
x1 = 0.7324 | -0.0206
x1 = 0.7935 | -0.0148
x1 = 0.8525 | -0.0117
x1 = 0.9112 | -0.00593
x1 = 0.9609 | -0.0048

O=C1CCCCC1 [cyclohexanone]
Conditions | vapor or sublimation pressure [kPa]
[1], 426.25 K | 95.3

O=C1CCCCC1 [cyclohexanone] + CN1CCCC1=O
[2]
Conditions | excess molar enthalpy [kcal/mol]
x1 = 0.0609 | 0.0043
x1 = 0.1242 | 0.013
x1 = 0.1855 | 0.0201
x1 = 0.2495 | 0.0261
x1 = 0.3151 | 0.0331
x1 = 0.3761 | 0.0391
x1 = 0.4301 | 0.0425
x1 = 0.4527 | 0.0461
x1 = 0.5028 | 0.0484
x1 = 0.5608 | 0.0481
x1 = 0.6249 | 0.0477
x1 = 0.6866 | 0.04
x1 = 0.7491 | 0.0317
x1 = 0.8134 | 0.0237
x1 = 0.8794 | 0.0158
x1 = 0.9445 | 0.00798
